Like-named read-outs stand apart in the source and are kept apart here.
B1: LysK: endolysin LysK (protein)
chain: MAKTQAEINKRLDAYAKGTVDSPYRVKKATSYDPSFGVMEAGAIDADGYYHAQCQDLITDYVLWLTDNKVRTWGNAKDQIKQSYGTGFKIHENKPSTVPKKGWIAVFTSGSYEQWGHIGIVYDGGNTSTFTILEQNWNGYANKKPTKRVDNYYGLTHFIEIPVKAGTTVKKETAKKSASKTPAPKKKATLKVSKNHINYTMDKRGKKPEGMVIHNDAGRSSGQQYENSLANAGYARYANGIAHYYGSEGYVWEAIDAKNQIAWHTGDGTGANSGNFRFAGIEVCQSMSASDAQFLKNEQAVFQFTAEKFKEWGLTPNRKTVRLHMEFVPTACPHRSMVLHTGFNPVTQGRPSQAIMNKLKDYFIKQIKNYMDKGTSSSTVVKDGKTSSASTPATRPVTGSWKKNQYGTWYKPENATFVNGNQPIVTRIGSPFLNAPVGGNLPAGATIVYDEVCIQAGHIWIGYNAYNGNRVYCPVRTCQGVPPNQIPGVAWGVFK
modifications: Staphylococcus aureus Phage K

What was measured:
E. coli XL1 blue = assay type: cell-based; settings: for Average log reduction, E. coli. X1-1: Table 9, with EDTA 0.5 mM
Procedure: . After incubation cell suspensions and as a control untreated bacterial cells without any added modified OBPgpLYS variant were diluted three times (respectively 10^5-10^4-10^3 cells/ml) in 1× concentrated PBS buffer and 100 μl of each dilution was plated out on LB-medium. […] All samples were replicated in threefold. Averages +/− standard deviations are represented.
(§1) The production of OBPgpLys with two peptide stretches is described above in Example 1. Moreover, the purification of the fusion proteins and the antimicrobial activity assay was performed as described already in Example 1.

P. putida G1 = experiment: In vitro antibacterial activity (log reduction) of modified OBPgpLys fusion variants; assay type: cell-based; settings: 10^6 cells/ml, 30 minutes at RT
Procedure: (§2) Exponential growing Gram-negative bacterial cells (OD600 nm=0.6) were 100-fold diluted to a final density of about 10^6 cells/ml in 5 mM HEPES pH 7.4 and incubated for 30 minutes at room temperature without shaking with the different modified OBPgpLYS variants (in Elution Buffer in an end concentration of 1500 nM). After incubation cell suspensions and as a control untreated bacterial cells without any added modified OBPgpLYS variant were diluted three times (respectively 10^5-10^4-10^3 cells/ml) in 1× concentrated PBS buffer and 100 μl of each dilution was plated out on LB-medium. […] All samples were replicated in threefold. Averages +/− standard deviations are represented.
as §1

P. aeruginosa PAO1p = experiment: as above; assay type: cell-based; settings: 10^6 cells/ml, 30 minutes at RT
Procedure: as §2, §1

S. typhimurium LT2 = experiment: as above; assay type: cell-based, Salmonella typhimurium; settings: 10^6 cells/ml, 30 minutes at RT; for Average log reduction, Salmonella typhimurium LT2: Table 9, with EDTA 0.5 mM; for Average log reduction, S. typhimurium LT2: 1500 nM protein
Procedure: After incubation cell suspensions and as a control untreated bacterial cells without any added modified OBPgpLYS variant were diluted three times (respectively 10^5-10^4-10^3 cells/ml) in 1× concentrated PBS buffer and 100 μl of each dilution was plated out on LB-medium. […] All samples were replicated in threefold. Averages +/− standard deviations are represented.
as §1

Staphylococcus bacteria = experiment: In vitro antibacterial activity of Lysostaphin and LysK fusion variants; assay type: cell-based; settings: with EDTA 0.5 mM, 10^6 cells/ml, 30 minutes at RT
[1] = with EDTA 0.5 mM (B), 1500 nM protein
[2] = 10^6 cells/ml, 30 minutes at RT
[3] = with EDTA 0.5 mM (B), 1500 nM protein, 10^6 cells/ml, 30 minutes at RT
[4] = without EDTA (A), 1500 nM protein, 10^6 cells/ml, 30 minutes at RT
[5] = without EDTA (A), 1500 nM protein

Row | Molecule | Average log reduction, E. coli XL1 blue (E. coli XL1 blue) | Average log reduction, P. putida G1 (P. putida G1; [1]) | Average log reduction, P. aeruginosa PAO1p (P. aeruginosa PAO1p; [1]) | Average log reduction, E. coli. X1-1 (E. coli XL1 blue; [2]) | Average log reduction, E. coli XL1 blue (E. coli XL1 blue; [3]) | Average log reduction, E. coli XL1 blue (E. coli XL1 blue; [4]) | Average log reduction, Salmonella typhimurium LT2 (S. typhimurium LT2) | Average log reduction, S. typhimurium LT2 (S. typhimurium LT2; with EDTA 0.5 mM (B)) | Average log reduction, S. typhimurium LT2 (S. typhimurium LT2; without EDTA (A)) | Average log reduction, P. putida G1 (P. putida G1; Table 9, with EDTA 0.5 mM) | Average log reduction, P. putida G1 (P. putida G1; [5]) | Average log reduction, P. aeruginosa PAO1p (P. aeruginosa PAO1p; Table 9, with EDTA 0.5 mM) | Average log reduction, P. aeruginosa PAO1p (P. aeruginosa PAO1p; [5]) | Average log reduction, Staphylococcus (Staphylococcus bacteria; Lysostaphin variants) | Average log reduction, Staphylococcus (Staphylococcus bacteria; LysK variants)
1 | O=C(O)CN(CCN(CC(=O)O)CC(=O)O)CC(=O)O [EDTA, reference compound] | 0.85 log | 0.65 log | 1.82 log | – | – | – | – | – | – | – | – | – | – | – | –
2 | Lycotoxin1-PK-OBPgpLYS: antimicrobial peptide Lycotoxin 1, then PK, N-terminally fused to endolysin OBPgpLys | – | 2.26 log | 3.73 log | ++ (++: 2-3 log) | 0.90 log | 0.41 log | + (+: 1 log) | 0.29 log | 0.17 log | ++ (++: 2-3 log) | 0.56 log | +++ (+++: 4 or more logs) | 0.08 log | – | –
3 | Lysostaphin-Sarcotoxin IA: Lysostaphin fusion variant with one peptide stretch, Sarcotoxin IA, C-terminal | – | – | – | – | – | – | – | – | – | – | – | – | – | ++ (++: 2-3 log) | –
4 | Lysostaphin: bacteriocin degrading Staphylococcus cell walls | – | – | – | – | – | – | – | – | – | – | – | – | – | + (+: 1 log) | –
5 | OBPgpLYS: endolysin of Pseudomonas putida phage OBP, without peptide stretch | – | – | – | + (+: 1 log) | – | – | + (+: 1 log) | – | – | + (+: 1 log) | – | + (+: 1 log) | – | – | –
6 | PK-Pentapeptide-OBPgplys: polycationic peptide PK, then hydrophobic pentapeptide FFVAP, N-terminally fused to endolysin OBPgpLys | – | 3.24 log | 4.00 log | ++ (++: 2-3 log) | 2.12 log | 1.69 log | + (+: 1 log) | 0.42 log | 0.22 log | +++ (+++: 4 or more logs) | 0.80 log | +++ (+++: 4 or more logs) | 0.95 log | – | –
7 | PK-α4-OBPgpLys: polycationic peptide PK, then α4-helix of T4-lysozyme, N-terminally fused to endolysin OBPgpLys | – | 2.97 log | 5.07 log | ++ (++: 2-3 log) | 0.86 log | 0.54 log | + (+: 1 log) | 0.29 log | 0.23 log | ++ (++: 2-3 log) | 0.01 log | +++ (+++: 4 or more logs) | 1.10 log | – | –
8 | Parasin1-PK-OBPgpLys: antimicrobial peptide Parasin 1, then PK, N-terminally fused to endolysin OBPgpLys | – | 2.32 log | 4.92 log | ++ (++: 2-3 log) | 1.00 log | 0.70 log | + (+: 1 log) | 0.28 log | 0.27 log | ++ (++: 2-3 log) | 0.16 log | +++ (+++: 4 or more logs) | 0.75 log | – | –
9 | Sarcotoxin IA-Lysostaphin: Lysostaphin fusion variant with one peptide stretch, Sarcotoxin IA, N-terminal | – | – | – | – | – | – | – | – | – | – | – | – | – | ++ (++: 2-3 log) | –
10 | Walmagh1-PK-OBPgpLYS: hydrophobic peptide Walmagh 1, then PK, N-terminally fused to endolysin OBPgpLys | – | 3.22 log | 3.66 log | – | 1.70 log | 1.46 log | – | 0.17 log | 0.12 log | – | 0.29 log | – | 0.20 log | – | –
11 | Walmagh2-PK-OBPgplys: amphiphatic peptide Walmagh 2, then PK, N-terminally fused to endolysin OBPgpLys | – | 2.60 log | 3.91 log | ++ (++: 2-3 log) | 1.86 log | 1.68 log | + (+: 1 log) | 0.25 log | 0.17 log | ++ (++: 2-3 log) | 0.00 log | +++ (+++: 4 or more logs) | 0.57 log | – | –
12 | α4-PK-OBPgpLys: α4-helix of T4-lysozyme, then polycationic peptide PK, N-terminally fused to endolysin OBPgpLys | – | 2.98 log | 5.23 log | + (+: 1 log) | 0.58 log | 0.55 log | + (+: 1 log) | 0.35 log | 0.22 log | ++ (++: 2-3 log) | 0.02 log | +++ (+++: 4 or more logs) | 0.59 log | – | –
13 | B1 | – | – | – | – | – | – | – | – | – | – | – | – | – | – | + (+: 1 log)

From patent US20130344055A1, “ANTIMICROBIAL AGENTS” (priority 2010, published 2013)
